In one test the test system is porcine liver esterase. Kind of test: Enzymatic generation of gNO with porcine liver esterase, sodium nitrite and ester substrates. The class given is biochemical. The note with it: for substrate ranking for porcine liver esterase (gNO generation): FIG. 31, measured hourly; for gNO production: porcine liver esterase, sodium nitrite. On the procedure:
(§1) Enzymatic Generation of gNO: A 200 μl reaction solution was prepared by combining water, an acetate ester (ethyl acetate, isobutyl acetate, octyl acetate) or a triglyceride such as triacetin (glyceryl triacetate), sodium nitrite, and an esterase (porcine liver esterase, rhyzopus oryzae esterase) or a lipase (porcine pancreatic lipase, candida rugosa lipase). The solution was then added to a 2 ml vial, which was closed tightly with a septum cap. The head gas was sampled every hour from the reaction containing vials in order to determine gNO concentrations.

Another test concerns candida rugosa lipase. Kind of test: Enzymatic generation of gNO with candida rugosa lipase, sodium nitrite and ester substrates. Type of test: biochemical. The procedure:
as §1

Where only a bound is given, the exact number is not on record here.

For `CCOC(C)=O` [ethyl acetate], the “substrate ranking for porcine liver esterase (gNO generation)” value in the test with porcine liver esterase is on record as “best substrates”.

For the compound `CC(=O)OCC(COC(C)=O)OC(C)=O` [triacetin, glyceryl triacetate], the gNO production is reported as at most 200 ppmV with porcine liver esterase (0.5% triacetin in the assay); “up to 250 ppmV” in the test on porcine liver esterase (1% triacetin in the assay); above 350 ppmV with porcine liver esterase (over the 6 hour experiment); at least 200 ppmV in the test with candida rugosa lipase (candida rugosa lipase, sodium nitrite, one hour after the reaction was started). For the same compound, the “substrate ranking for porcine liver esterase (gNO generation)” value with porcine liver esterase is on record as “best substrates”. Further, the “nitric oxide production (in words)” value in the test on candida rugosa lipase (candida rugosa lipase tested against four substrates) is on record as “able to produce high amounts of nitric oxide”.

Values taken from patent publication US20110106000A1, “Nitric Oxide Compositions and Devices and Methods for Cosmesis” (MICROPHARMA LIMITED, priority 2008, published 2011).
